The text below walks through data of patent publication US12344610B2, “APOL1 inhibitors and methods of use” (Maze Therapeutics, Inc., priority 2022, dated 2025).

Structures are written as SMILES. pEC50: −log10 of the molar value.

The test system of this experiment is human immortalized podocytes inducibly expressing APOL1 G2. The experiment is described as follows: APOL1 G2 podocyte cell rescue assay (Example B4). The experiment is classed as cell-based. Conditions: Homo sapiens, differentiated human podocytes, doxycycline-induced APOL1 G2, CellTiter-Glo; geometric mean of at least 2 runs; † = single run. In short, it runs like this: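 Differentiated hTERT-immortalized podocytes (clone D10) with doxycycline-inducible C-terminally HiBiT-tagged APOL1 G2, 6,000 cells/well, treated with doxycycline plus 8-point 3-fold compound series (0.4% DMSO) for 95 h at 37 °C. Viability by CellTiter-Glo luminescence; EC50 as geometric mean of ≥2 runs, each in duplicate.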

Take `C[C@]1(O)C[C@@H](n2cnc3cc(OCCN4CCC5(CC4)C(=O)Nc4c(I)cc(Cl)cc45)cc(C(F)(F)F)c32)C1` [Compound 453, 5-chloro-7-iodo-1′-[2-({1-[(cis)-3-hydroxy-3-methylcyclobutyl]-7-(trifluoromethyl)-1H-1,3-benzodiazol-5-yl}oxy)ethyl]-1,2-dihydrospiro[indole-3,4′-piperidin]-2-one]: the negative logarithm of the EC50 (pEC50) (as a rule, −log10 of the EC50, conventionally taken in molar units) is 8.74.
`C[C@]1(O)C[C@@H](n2cnc3cc(OCCN4CCC5(CC4)C(=O)Nc4ccc(Cl)cc45)cc(C(F)(F)F)c32)C1` [Compound 352, 5-chloro-1′-[2-({1-[(cis)-3-hydroxy-3-methylcyclobutyl]-7-(trifluoromethyl)-1H-1,3-benzodiazol-5-yl}oxy)ethyl]-1,2-dihydrospiro[indole-3,4′-piperidin]-2-one] showed a pEC50 of 8.95. This pEC50 is 0.21 log units higher than that of the molecule before.
Turning to `C[C@]1(O)C[C@@H](n2cnc3cc(OCCN4CCC5(CC4)C(=O)Nc4ccc(Cl)cc45)cc(F)c32)C1` [Compound 454, 5-chloro-1′-(2-((7-fluoro-1-((cis)-3-hydroxy-3-methylcyclobutyl)-1H-benzo[d]imidazol-5-yl)oxy)ethyl)spiro[indoline-3,4′-piperidin]-2-one], the pEC50 is 8.36.
In the case of `CC(C)(CO)c1ncc(OCCN2CCC3(CC2)C(=O)Nc2ccc(Cl)cc23)cn1` [Compound 334, 5-chloro-1′-(2-{[2-(1-hydroxy-2-methylpropan-2-yl)pyrimidin-5-yl]oxy}ethyl)-1,2-dihydrospiro[indole-3,4′-piperidin]-2-one] it was 8.02; in that of `CC[C@]1(O)C[C@@H](N2C(=O)CCc3cc(OCCN4CCC5(CC4)C(=O)Nc4ccc(Cl)cc45)cnc32)C1` (single isomer, unassigned) [Compound 321, 5-chloro-1′-[2-({7-oxo-8-[(cis)-3-ethyl-3-hydroxycyclobutyl]-5,6,7,8-tetrahydro-1,8-naphthyridin-3-yl}oxy)ethyl]-1,2-dihydrospiro[indole-3,4′-piperidin]-2-one], 8.12.
With `C[C@]1(O)C[C@@H](n2nnc3cc(OCCN4CCC5(CC4)C(=O)Nc4ccc(Cl)cc45)cnc32)C1` [Compound 440, 5-chloro-1′-[2-({3-[(cis)-3-hydroxy-3-methylcyclobutyl]-3H-[1,2,3]triazolo[4,5-b]pyridin-6-yl}oxy)ethyl]-1,2-dihydrospiro[indole-3,4′-piperidin]-2-one], the pEC50 was 7.82.
In the case of `C[C@]1(O)C[C@@H](n2ccc3cc(OCCN4CCC5(CC4)C(=O)Nc4ccc(Cl)cc45)cnc32)C1` [Compound 349, 5-chloro-1′-[2-({1-[(cis)-3-hydroxy-3-methylcyclobutyl]-1H-pyrrolo[2,3-b]pyridin-5-yl}oxy)ethyl]-1,2-dihydrospiro[indole-3,4′-piperidin]-2-one], the pEC50 is 8.17.
The same measure for `C[C@]1(O)C[C@@H](n2cnc3cc(OCCN4CCC5(CC4)C(=O)Nc4ccc(C(F)F)cc45)cc(C(F)(F)F)c32)C1` [Compound 450, 5-(difluoromethyl)-1′-[2-({1-[(cis)-3-hydroxy-3-methylcyclobutyl]-7-(trifluoromethyl)-1H-1,3-benzodiazol-5-yl}oxy)ethyl]-1,2-dihydrospiro[indole-3,4′-piperidin]-2-one]: 9.07; for `C[C@]1(O)C[C@@H](n2ncc3cc(OCCN4CCC5(CC4)C(=O)Nc4ccc(C#N)cc45)cc(C(F)(F)F)c32)C1` [Compound 465, 2-oxo-1′-[2-({1-[(cis)-3-hydroxy-3-methylcyclobutyl]-7-(trifluoromethyl)-1H-indazol-5-yl}oxy)ethyl]-1,2-dihydrospiro[indole-3,4′-piperidine]-5-carbonitrile]: 8.91; for `CC(CO)(c1ncc(OCCN2CCC3(CC2)C(=O)Nc2ccc(Cl)cc23)cc1C(F)(F)F)S(C)(=O)=O` (stereo not shown) [Compound 401, 5-chloro-1′-(2-{[6-(1-hydroxy-2-methanesulfonylpropan-2-yl)-5-(trifluoromethyl)pyridin-3-yl]oxy}ethyl)-1,2-dihydrospiro[indole-3,4′-piperidin]-2-one]: 8.34.
`Cc1nc2cc(OCCN3CCC4(CC3)C(=O)Nc3ccc(C#N)cc34)cc(C(F)(F)F)c2n1[C@H]1C[C@@](C)(O)C1` [Compound 443, 1′-[2-({2-methyl-1-[(cis)-3-hydroxy-3-methylcyclobutyl]-7-(trifluoromethyl)-1H-1,3-benzodiazol-5-yl}oxy)ethyl]-2-oxo-1,2-dihydrospiro[indole-3,4′-piperidine]-5-carbonitrile] had a pEC50 of 8.60.
The same measure for `C[C@]1(O)C[C@@H](n2cnc3cc(OCCN4CCC5(CC4)C(=O)Nc4ccc(C#N)cc45)cc(C(F)(F)F)c32)C1` [Compound 433, 1′-(2-((1-((cis)-3-hydroxy-3-methylcyclobutyl)-7-(trifluoromethyl)-1H-benzo[d]imidazol-5-yl)oxy)ethyl)-2-oxospiro[indoline-3,4′-piperidine]-5-carbonitrile]: 8.67; for `C[C@]1(O)C[C@@H](n2cnc3cc(OCCN4CCC5(CC4)C(=O)Nc4ccc(Cl)cc45)cc(C#N)c32)C1` [Compound 439, 5-(2-{5-chloro-2-oxo-1,2-dihydrospiro[indole-3,4′-piperidin]-1′-yl}ethoxy)-1-[(cis)-3-hydroxy-3-methylcyclobutyl]-1H-1,3-benzodiazole-7-carbonitrile]: 8.41; for `CS(=O)(=O)C1(c2ncc(OCCN3CCC4(CC3)C(=O)Nc3ccc(Cl)cc34)cn2)CC1` [Compound 4, 5-chloro-1′-(2-{[2-(1-methanesulfonylcyclopropyl)pyrimidin-5-yl]oxy}ethyl)-1,2-dihydrospiro[indole-3,4′-piperidin]-2-one]: 8.04.
With `C[C@]1(O)C[C@@H](n2ncc3cc(OCCN4CCC5(CC4)C(=O)Nc4ccc(Cl)cc45)cnc32)C1` (single isomer, unassigned) [Compound 357, 5-chloro-1′-[2-({1-[(cis)-3-hydroxy-3-methylcyclobutyl]-1H-pyrazolo[3,4-b]pyridin-5-yl}oxy)ethyl]-1,2-dihydrospiro[indole-3,4′-piperidin]-2-one], the pEC50 was 8.39.
Turning to `[2H]C([2H])(Oc1cnc2c(c1)CCC(=O)N2[C@H]1C[C@@](C)(O)C1)C([2H])([2H])N1CCC2(CC1)C(=O)Nc1ccc(Cl)cc12` [Compound 426, 5-chloro-1′-[2-({7-oxo-8-[(cis)-3-hydroxy-3-methylcyclobutyl]-5,6,7,8-tetrahydro-1,8-naphthyridin-3-yl}oxy)(1,1,2,2-^2H4)ethyl]-1,2-dihydrospiro[indole-3,4′-piperidin]-2-one], the pEC50 is 8.39.
Turning to `O=C1Nc2ccc(Cl)cc2C12CCN(CCOc1cnc(N3CC4(CC(O)C4)C3)nc1)CC2` [Compound 396, 5-chloro-1′-{2-[(2-{6-hydroxy-2-azaspiro[3.3]heptan-2-yl}pyrimidin-5-yl)oxy]ethyl}-1,2-dihydrospiro[indole-3,4′-piperidin]-2-one], the pEC50 was 7.73.
The molecule `C[C@]1(O)C[C@@H](N2C(=O)Cc3cc(OCCN4CCC5(CC4)C(=O)Nc4ccc(C(F)F)cc45)cnc32)C1` [Compound 346, 5-(difluoromethyl)-1′-[2-({2-oxo-1-[(cis)-3-hydroxy-3-methylcyclobutyl]-1H,2H,3H-pyrrolo[2,3-b]pyridin-5-yl]oxy)ethyl]-1,2-dihydrospiro[indole-3,4′-piperidin]-2-one] had a pEC50 of 7.41.
As to `CC(c1ncc(OCCN2CCC3(CC2)C(=O)Nc2ccc(Cl)cc23)cn1)S(C)(=O)=O` (stereo not shown) [Compound 1, 5-Chloro-1′-(2-{[2-(1-methanesulfonylethyl)pyrimidin-5-yl]oxy}ethyl)-1,2-dihydrospiro[indole-3,4′-piperidin]-2-one], the pEC50 was 7.73. This pEC50 is 0.32 log units higher than that of the molecule before.
`CCC1(O)CN(c2ncc(OCCN3CCC4(CC3)C(=O)Nc3ccc(Cl)cc34)cn2)C1` [Compound 397, 5-chloro-1′-(2-{[2-(3-ethyl-3-hydroxyazetidin-1-yl)pyrinlidin-5-yl]oxy}ethyl)-1,2-dihydrospiro[indole-3,4′-piperidin]-2-one] gave a negative logarithm of the EC50 (pEC50) of 7.84. This pEC50 and that of the molecule before are within 0.2 log units of each other.
In the case of `C[C@]1(O)C[C@H](n2ncc3cc(OCCN4CCC5(CC4)C(=O)Nc4ccc(Cl)cc45)cnc32)C1` (single isomer, unassigned) [Compound 408, 5-chloro-1′-[2-({1-[(trans)-3-hydroxy-3-methylcyclobutyl]-1H-pyrazolo[3,4-b]pyridin-5-yl}oxy)ethyl]-1,2-dihydrospiro[indole-3,4′-piperidin]-2-one] it was 8.15; in that of `C[C@]1(O)C[C@@H](n2nnc3cc(OCCN4CCC5(CC4)C(=O)Nc4ccc(C#N)cc45)cc(C(F)(F)F)c32)C1` [Compound 435, 2-oxo-1′-[2-({1-[(cis)-3-hydroxy-3-methylcyclobutyl]-7-(trifluoromethyl)-1H-1,2,3-benzotriazol-5-yl}oxy)ethyl]-1,2-dihydrospiro[indole-3,4′-piperidine]-5-carbonitrile], 8.53.
Molecule `Cc1nc2cc(OCCN3CCC4(CC3)C(=O)Nc3ccc(Cl)cc34)cc(C(F)(F)F)c2n1[C@H]1C[C@@](C)(O)C1` [Compound 442, 5-chloro-1′-[2-({2-methyl-1-[(cis)-3-hydroxy-3-methylcyclobutyl]-7-(trifluoromethyl)-1H-1,3-benzodiazol-5-yl}oxy)ethyl]-1,2-dihydrospiro[indole-3,4′-piperidin]-2-one] had a negative logarithm of the EC50 (pEC50) of 8.94.
Take `CC(C)(O)c1ncc(OCCN2CCC3(CC2)C(=O)Nc2ccc(C#N)cc23)cc1C(F)(F)F` [Compound 411, 1′-(2-{[6-(2-hydroxypropan-2-yl)-5-(trifluoromethyl)pyridin-3-yl]oxy}ethyl)-2-oxo-1,2-dihydrospiro[indole-3,4′-piperidine]-5-carbonitrile]: the pEC50 was 8.84. The pEC50 values of the last two molecules are within 0.2 log units of each other.
On to `C[C@]1(O)C[C@@H](n2ccc3cc(OCCN4CCC5(CC4)C(=O)Nc4ccc(C(F)F)cc45)cnc32)C1` [Compound 350, 5-(difluoromethyl)-1′-[2-({1-[(cis)-3-hydroxy-3-methylcyclobutyl]-1H-pyrrolo[2,3-b]pyridin-5-yl}oxy)ethyl]-1,2-dihydrospiro[indole-3,4′-piperidin]-2-one], for which the pEC50 was 7.99.
